In patent US7759496B2, “Imidazole derivatives having affinity for alpha 2 receptors activity” (Orion Corporation, priority 2002, dated 2010):
Read-outs that look alike come from different tables or passages of the source.

What was measured:
[1] = Chemical stability in phosphate buffer at 37° C.; format: physicochemical
Procedure: An appropriate amount of the test compound (initial concentrations were 0.1-0.4 mM) was dissolved in pre-heated phosphate buffer (0.16 M, μ=0.5, pH 7.4 or pH 5.0). The solution was placed in a thermostated water bath at 37° C. and aliquots were taken at suitable intervals and analyzed by HPLC to determine the degradation rate of the compound. The pseudo-first-order half-life (t1/2) was calculated from the linear slopes of semi-logarithmic plots of remaining compound over time.

[2] = system: normotensive rabbits; test: IOP study in rabbits; format: in vivo, rabbit; details: for Intraocular pressure (IOP) change: mean ± SE, n = 5-6
Procedure: The IOP lowering effect of the prodrug was also compared to the effect of MPV-2426.
To perform the IOP test, a rabbit was placed in a plastic restraining box located in a quiet room. A single drop (25 μl) of the test solution was instilled unilaterally into its left eye on the upper corneoscleral limbus. During installation, the upper eyelid was pulled slightly away from the globe. IOP was measured using a BioRad (Cambridge, Mass.) Digilab Modular One Pneumatonometer. Before each measurement one or two drops of oxybuprocaine (0.06%) were applied to the cornea before tonometry to eliminate discomfort. The upper and lower eyelids were then gently retracted, and the applanation sensor was brought into contact with the center of the cornea. For each
determination at least two readings were taken from each treated (ipsilateral) and untreated (contralateral) eye, and the mean of these readings was used. IOP of the rabbits was measured at 2, 1, and 0 h before and at 0.5, 1, 2, 3, 4 and 5 h after eyedrop administration. IOP at the time of eyedrop administration (0 h) was used as a baseline value. All studies were set up using a masked and randomized crossover design. At least 72 h washout time was allowed for each rabbit between each dosing. Results

[3] = system: serum esterases; test: Enzymatic hydrolysis in 80% human serum; format: in vitro ADME; details: pH 7.4, 37° C., read-out: t1/2 (min) 80% human serum (pH 7.4)
Procedure: To exert the pharmacological effect in the body, a prodrug should be enzymatically degraded to the parent drug. Therefore, the susceptibility of the compounds to serum esterases was evaluated.
An appropriate amount of the test compound was dissolved in one volume (e.g. 1 ml) of phosphate buffer (0.16 M, μ=0.5, pH 7.4) at 37° C. Four volumes (e.g. 4 ml) of pre-heated human serum were added and the solutions were mixed in a water bath at 37° C. (initial concentrations were 0.2-0.5 mM). At suitable intervals, 300 μl aliquots were withdrawn and deproteinated with 600 μl of acetonitrile. After mixing and centrifugation, 600 μl of the supernatant was evaporated to dryness under a stream of air at 40° C. The residue was re-dissolved in 300 μl of the mobile phase and analyzed by HPLC. The pseudo-first-order half-life (t1/2) was calculated from the linear slopes of semi-logarithmic plots of remaining compound over time. Also the formation of the parent drug was determined.

[4] = topical unilateral administration

CC(C)(C)C(=O)Oc1ccc2c(c1)C(Cc1c[nH]cn1)CC2.Cl (stereo not shown) [example 3, 4-[6-(2,2-Dimethylpropanoyloxy)indan-1-ylmethyl]-1H-imidazol-1-ium chloride]
half-life ([1]; phosphate buffer pH 5.0, 37° C., read-out: t1/2 (d) phosphate buffer pH 5.0 (converted)): 310 days | half-life ([1]; phosphate buffer pH 7.4, 37° C., read-out: t1/2 (d) phosphate buffer pH 7.4 (converted)): 31 days | IOP lowering potency compared to an equimolar dose of MPV-2426 [2, 4]: increased IOP lowering potency | duration of action compared to MPV-2426 [2, 4]: prolonged duration of action | duration of the IOP lowering effect ([2]; topical unilateral administration, treated eye): lasted from 1 h through the duration of the 5 h experiment | Intraocular pressure (IOP) change ([2]; treated eye, 0.1 μg, 0 h): 0.0 ± 0.0 mmHg | Intraocular pressure (IOP) change ([2]; treated eye, 0.1 μg, 0.5 h): 1.7 ± 0.9 mmHg | Intraocular pressure (IOP) change ([2]; treated eye, 0.1 μg, 1 h): 0.2 ± 1.3 mmHg | Intraocular pressure (IOP) change ([2]; treated eye, 0.1 μg, 2 h): 0.8 ± 1.2 mmHg | Intraocular pressure (IOP) change ([2]; treated eye, 0.1 μg, 3 h): 0.6 ± 0.6 mmHg | Intraocular pressure (IOP) change ([2]; treated eye, 0.1 μg, 4 h): 1.8 ± 0.5 mmHg | Intraocular pressure (IOP) change ([2]; treated eye, 0.1 μg, 5 h): 2.0 ± 0.9 mmHg | Intraocular pressure (IOP) change ([2]; treated eye, 1.0 μg, 0 h): 0.0 ± 0.0 mmHg | Intraocular pressure (IOP) change ([2]; treated eye, 1.0 μg, 0.5 h): −1.0 ± 0.3 mmHg | Intraocular pressure (IOP) change ([2]; treated eye, 1.0 μg, 1 h): −3.6 ± 0.7 mmHg | Intraocular pressure (IOP) change ([2]; treated eye, 1.0 μg, 2 h): −4.6 ± 1.4 mmHg | Intraocular pressure (IOP) change ([2]; treated eye, 1.0 μg, 3 h): −4.3 ± 1.1 mmHg | Intraocular pressure (IOP) change ([2]; treated eye, 1.0 μg, 4 h): −2.0 ± 1.4 mmHg | Intraocular pressure (IOP) change ([2]; treated eye, 1.0 μg, 5 h): −0.9 ± 1.8 mmHg | Intraocular pressure (IOP) change ([2]; treated eye, 2.5 μg, 0 h): 0.0 ± 0.0 mmHg | Intraocular pressure (IOP) change ([2]; treated eye, 2.5 μg, 0.5 h): 0.6 ± 0.9 mmHg | Intraocular pressure (IOP) change ([2]; treated eye, 2.5 μg, 1 h): −2.9 ± 1.3 mmHg | Intraocular pressure (IOP) change ([2]; treated eye, 2.5 μg, 2 h): −3.3 ± 1.8 mmHg | Intraocular pressure (IOP) change ([2]; treated eye, 2.5 μg, 3 h): −1.6 ± 1.7 mmHg | Intraocular pressure (IOP) change ([2]; treated eye, 2.5 μg, 4 h): 1.0 ± 2.2 mmHg | Intraocular pressure (IOP) change ([2]; treated eye, 2.5 μg, 5 h): 1.3 ± 1.9 mmHg | Intraocular pressure (IOP) change ([2]; treated eye, 3.4 μg (equimolar to 2.5 μg of MPV-2426), 0 h): 0.0 ± 0.0 mmHg | Intraocular pressure (IOP) change ([2]; treated eye, 3.4 μg (equimolar to 2.5 μg of MPV-2426), 0.5 h): −0.9 ± 0.9 mmHg | Intraocular pressure (IOP) change ([2]; treated eye, 3.4 μg (equimolar to 2.5 μg of MPV-2426), 1 h): −2.9 ± 0.5 mmHg | Intraocular pressure (IOP) change ([2]; treated eye, 3.4 μg (equimolar to 2.5 μg of MPV-2426), 2 h): −6.5 ± 1.1 mmHg | Intraocular pressure (IOP) change ([2]; treated eye, 3.4 μg (equimolar to 2.5 μg of MPV-2426), 3 h): −5.2 ± 1.7 mmHg | Intraocular pressure (IOP) change ([2]; treated eye, 3.4 μg (equimolar to 2.5 μg of MPV-2426), 4 h): −3.2 ± 0.9 mmHg | Intraocular pressure (IOP) change ([2]; treated eye, 3.4 μg (equimolar to 2.5 μg of MPV-2426), 5 h): −1.4 ± 0.7 mmHg | IOP changes in the untreated eyes ([2]; untreated (contralateral) eyes): Less significant changes | Intraocular pressure (IOP) change ([2]; untreated eye, 0.1 μg, 0 h): 0.0 ± 0.0 mmHg | Intraocular pressure (IOP) change ([2]; untreated eye, 0.1 μg, 0.5 h): 1.4 ± 0.1 mmHg | Intraocular pressure (IOP) change ([2]; untreated eye, 0.1 μg, 1 h): 0.9 ± 0.5 mmHg | Intraocular pressure (IOP) change ([2]; untreated eye, 0.1 μg, 2 h): 1.3 ± 0.2 mmHg | Intraocular pressure (IOP) change ([2]; untreated eye, 0.1 μg, 3 h): 1.3 ± 0.7 mmHg | Intraocular pressure (IOP) change ([2]; untreated eye, 0.1 μg, 4 h): 1.0 ± 0.9 mmHg | Intraocular pressure (IOP) change ([2]; untreated eye, 0.1 μg, 5 h): 2.4 ± 1.3 mmHg | Intraocular pressure (IOP) change ([2]; untreated eye, 1.0 μg, 0 h): 0.0 ± 0.0 mmHg | Intraocular pressure (IOP) change ([2]; untreated eye, 1.0 μg, 0.5 h): 0.0 ± 1.4 mmHg | Intraocular pressure (IOP) change ([2]; untreated eye, 1.0 μg, 1 h): −2.1 ± 1.2 mmHg | Intraocular pressure (IOP) change ([2]; untreated eye, 1.0 μg, 2 h): −2.0 ± 1.8 mmHg | Intraocular pressure (IOP) change ([2]; untreated eye, 1.0 μg, 3 h): −0.9 ± 2.4 mmHg | Intraocular pressure (IOP) change ([2]; untreated eye, 1.0 μg, 4 h): −1.4 ± 0.7 mmHg | Intraocular pressure (IOP) change ([2]; untreated eye, 1.0 μg, 5 h): −0.8 ± 2.1 mmHg | Intraocular pressure (IOP) change ([2]; untreated eye, 2.5 μg, 0 h): 0.0 ± 0.0 mmHg | Intraocular pressure (IOP) change ([2]; untreated eye, 2.5 μg, 0.5 h): −0.2 ± 0.9 mmHg | Intraocular pressure (IOP) change ([2]; untreated eye, 2.5 μg, 1 h): −0.6 ± 0.7 mmHg | Intraocular pressure (IOP) change ([2]; untreated eye, 2.5 μg, 2 h): 0.0 ± 1.5 mmHg | Intraocular pressure (IOP) change ([2]; untreated eye, 2.5 μg, 3 h): 0.1 ± 1.0 mmHg | Intraocular pressure (IOP) change ([2]; untreated eye, 2.5 μg, 4 h): 1.0 ± 1.8 mmHg | Intraocular pressure (IOP) change ([2]; untreated eye, 2.5 μg, 5 h): 0.3 ± 1.6 mmHg | Intraocular pressure (IOP) change ([2]; untreated eye, 3.4 μg (equimolar to 2.5 μg of MPV-2426), 0 h): 0.0 ± 0.0 mmHg | Intraocular pressure (IOP) change ([2]; untreated eye, 3.4 μg (equimolar to 2.5 μg of MPV-2426), 0.5 h): 0.4 ± 0.7 mmHg | Intraocular pressure (IOP) change ([2]; untreated eye, 3.4 μg (equimolar to 2.5 μg of MPV-2426), 1 h): −2.7 ± 0.8 mmHg | Intraocular pressure (IOP) change ([2]; untreated eye, 3.4 μg (equimolar to 2.5 μg of MPV-2426), 2 h): −1.3 ± 0.6 mmHg | Intraocular pressure (IOP) change ([2]; untreated eye, 3.4 μg (equimolar to 2.5 μg of MPV-2426), 3 h): −2.8 ± 0.8 mmHg | Intraocular pressure (IOP) change ([2]; untreated eye, 3.4 μg (equimolar to 2.5 μg of MPV-2426), 4 h): −0.8 ± 0.7 mmHg | Intraocular pressure (IOP) change ([2]; untreated eye, 3.4 μg (equimolar to 2.5 μg of MPV-2426), 5 h): −0.8 ± 1.0 mmHg | melting point: 176 to 177 °C | half-life [3]: 30 min
